The values that follow come from US20150374672A1, “PRE-SELECTION OF SUBJECTS FOR THERAPEUTIC TREATMENT WITH AN HSP90 INHIBITORY COMPOUND BASED ON CHEMOSENSITIVE STATUS” (Synta Pharmaceuticals Corp., priority 2014, published 2015).

For one series, the system named is advanced NSCLC. As to the kind of experiment: GALAXY-1 Phase 2b trial, ganetespib plus docetaxel vs. docetaxel alone: OS and PFS. Format: in vivo, human. An excerpt: The GALAXY-1 trial was initiated in patients with advanced NSCLC who received one prior treatment for advanced disease, i.e., a second-line treatment setting. GALAXY-1 compared treatment with docetaxel (D) alone, which is approved for second-line treatment, vs. treatment with ganetespib (G) plus docetaxel (D). The aims of the study were to:
The key GALAXY-1 patient populations comprised populations with (1) elevated LDH (eLDH), (2) KRAS mutations (mKRAS) and/or (3) time since diagnosis of cancer of 6 months or greater (chemosensitive). A rationale for selecting a population with elevated LDH is that LDH-A is a marker of HIF-1α activity, and HIF-1α is a Hsp90 client, and drives invasiveness and metastasis. A rationale for selecting a population with KRAS mutation is that RAS signaling kinases are Hsp90 clients, and there is a medical need. A rationale for selecting a population in which the time since diagnosis of cancer is 6 months or greater (chemosensitive population) is that key cell cycle checkpoint/DNA repair kinases are Hsp90 clients. Additionally, key mitochondrial apoptosis pathway proteins are Hsp90 clients.
(§1) Patients in both arms of GALAXY-1 received a standard regimen of docetaxel 75 mg/m^2 on day 1 of a 21-day treatment cycle. Patients in the combination arm also received ganetespib 150 mg/m^2 on days 1 and 15. Treatment continued until disease progression or until treatment intolerance. To ensure balance of prognostic factors between the two arms, patients were stratified by ECOG performance status (these scales and criteria are used by doctors and researchers to assess how a patient's disease is progressing, assess how the disease affects the daily living abilities of the patient, and determine appropriate treatment and prognosis), baseline lactate dehydrogenase (LDH) level, smoking status, and time since diagnosis of advanced disease.
To ensure the specified number of eLDH and mKRAS patients were included, a total of 385 patients were enrolled in GALAXY-1.
Hazard ratios were calculated with Cox proportional hazards model. • Unadjusted: univariate analysis • Adjusted: pre-specified analysis adjusting for multiple prognostic variables such as gender, smoking status, LDH, ECOG performance status, interval since diagnosis of advanced disease, age, total baseline target lesion size, and geographic region.
This was a randomized, multicenter, parallel group study. Patients in both arms were treated with docetaxel per standard practice until disease progression or intolerability. Patients on both arms were treated until intolerability or disease progression per RECIST.
Key eligibility criteria were Stage IIIB/IV NSCLC; ECOG 0,1; one prior therapy in advanced setting; measurable disease by RECIST; documented disease progression; clinically stable CNS metastases; available tumor tissues; and adequate organ function.
Patients were randomized in a 1:1 ratio to receive either ganetespib in combination with docetaxel or docetaxel alone.
The experimental arm was dosed with ganetespib in combination with docetaxel 75 mg/m^2. Ganetespib (150 mg/m^2) and docetaxel (75 mg/m^2) were administered on Day 1 of a 3-week cycle. Ganetespib (150 mg/m^2) was administered again on Day 15 of each 3-week cycle. Docetaxel 75 mg/m^2 was administered on Day 1 of a 3-week treatment cycle. 385 patients were enrolled. A total of 381 patients received at least one dose of study drug.

A short description of series [1]: GALAXY-1 safety profile (adverse events) in adenocarcinoma patients. The method, then: as §1
Series [2] deals with advanced solid tumor malignancies. As to the kind of experiment: Phase 1 dose-escalation, pharmacokinetic study of ganetespib in combination with docetaxel. It counts as in vivo, human. The conditions noted are these: ganetespib schedule Days 1 and 15 of each cycle, preliminary data. Here is the method: Patients were dosed once-weekly. Dosing was with 150 mg/m^2 ganetespib (days 1 and 15)+60 mg/m^2 docetaxel (Day 1). Initial ganetespib dosing regimen was Days 1 and 8; however, Day 8 was later changed to Day 15. Day 4 dosing with single agent ganetespib was added. The dose cycle was 2 weeks+1 week rest. The primary objective of this study was to determine the recommended doses for the combination of ganetespib and docetaxel in patients with advanced solid tumor malignancies. Secondary objectives were to define the DLTs associated with ganetespib in combination with docetaxel dosing, assess possible PK effects, and evaluate the safety, tolerability, and preliminary evidence of anti-tumor activity of the combination. A total of 27 patients were enrolled.

Series [3] deals with solid and hematologic cancers. As to the kind of experiment: Preclinical studies of anti-cancer activity. The conditions noted are these: monotherapy and in combination with widely used anti-cancer agents.
Series [4] in a line: Safety of ganetespib across clinical trials (over 1,000 patients). Format: in vivo, human. The source says: Ganetespib has been evaluated in a broad range of cancer clinical trials including the GALAXY NSCLC program (GALAXY-1 and GALAXY-2) in combination with docetaxel chemotherapy, and as monotherapy in certain genetically-defined targeted patient populations. A favorable safety profile has been consistently observed across clinical trials, involving over 1,000 patients treated with ganetespib to date. […] In the clinical trials conducted to date, ganetespib has shown promising activity both in combination with chemotherapy and as a monotherapy.

Setting [5] is: Adenocarcinoma population, N = 253.
Where [6] appears, read: Chemosensitive population, N = 177.

As for `CC(=O)O[C@@]12CO[C@@H]1C[C@H](O)[C@@]1(C)C(=O)[C@H](O)C3=C(C)[C@@H](OC(=O)[C@H](O)[C@@H](NC(=O)OC(C)(C)C)c4ccccc4)C[C@@](O)([C@@H](OC(=O)c4ccccc4)[C@H]21)C3(C)C` [D, docetaxel], in the series with advanced NSCLC (setting [5]), the “Median OS” value is 8.4 months and the “Median PFS” value came to 3.2 months. Moreover, in the series with advanced NSCLC (setting [6]), the “Median OS” value is reported as 7.4 months and the “Median PFS” value was 3.4 months. For the same compound, in the series with advanced NSCLC (eLDH population, N = 87), the “Median OS” value amounted to 5.1 months and the “Median PFS” value stood at 2.7 months. In the series on advanced NSCLC (mKRAS population, N = 89), the “Median OS” value came to 6.4 months and the “Median PFS” value came out at 3.0 months. The “proportion of patients with AEs leading to death” value in series [1] (adenocarcinoma patients) is 12%. In series [1] (human, in vivo), the “diarrhea, all grades” value was found to be 16%; the “fatigue, all grades” value is on record as 24%; the “grade 3 or 4 anemia” value is listed as 2%; the “grade 3 or 4 fatigue” value is 4%. Moreover, in series [1] (human, in vivo), the “grade 3 or 4 febrile neutropenia” value was 4%; the “grade 3 or 4 neutropenia” value was 42%; the “incidence of grade 3 or 4 diarrhea” value came out at 0%; the “neutropenia, all grades” value worked out at 45%. The “proportion of patients with AEs leading to treatment discontinuation” value in series [1] (human, in vivo) is on record as 6%. The “recommended Phase 2 dose” value in series [2] is 75 mg/m^2.
Take `CC(C)c1cc(-c2nnc(O)n2-c2ccc3c(ccn3C)c2)c(O)cc1O` [Ganetespib]: the “anti-cancer activity in preclinical studies” value in series [3] is on record as “potent anti-cancer activity”. Further, the “most common adverse event” value in series [4] (clinical trials) is reported as “transient, mild or moderate diarrhea”. In addition, in series [4] (over 1,000 patients treated), the “toxicities observed across clinical trials” value is “not shown the serious liver or common ocular toxicities”. Besides, in series [2], the “recommended Phase 2 dose” value was 150 mg/m^2.
